In PMC6476934, “A Flavor Lactone Mimicking AHL Quorum-Sensing Signals Exploits the Broad Affinity of the QsdR Regulator to Stimulate Transcription of the Rhodococcal qsd Operon Involved in Quorum-Quenching and Biocontrol Activities” (Frontiers in Microbiology, 2019):

Assays:
[1] = target: T1, QsdR (His-tagged) (Rhodococcus erythropolis R138?) (UniProt A0A0C2W9F0); experiment: EMSA; details: LightShift Chemiluminescent EMSA Kit buffer (composition, salt, pH not stated); QsdR in Qiagen elution buffer with 50% glycerol; 20 min at room temperature …
T1 sequence: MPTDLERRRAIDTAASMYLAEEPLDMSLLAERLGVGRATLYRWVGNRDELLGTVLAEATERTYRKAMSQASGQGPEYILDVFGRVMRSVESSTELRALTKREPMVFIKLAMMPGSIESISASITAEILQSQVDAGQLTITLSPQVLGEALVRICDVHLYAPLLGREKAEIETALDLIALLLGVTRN

QsdR = target: T2, QsdR (Rhodococcus erythropolis, UniProt A0A0C2W9F0); experiment: EMSA with biotinylated qsdR-qsdA intergenic DNA, release of DNA; type: binding; details: ligand/QsdR molecular ratio 0.1 to 100, 3 μg QsdR, 0.4 ng DNA, room temperature
T2 construct: gene I3517_23075; qsdR ORF (563 bp NdeI-BamHI fragment) in pET19, His-tagged, E. coli BL21DE3, Ni-NTA; about 20 kDa; dimer
T2 sequence (A0A0C2W9F0 1-186): T1 sequence

GGTAGGCATCGGGACATTCTCTCCGGTTGTCCGGTACTGCACAATTTCGGCGGTCGAACAGAGGTGGGCTTCGGGTGGCTCGAGCCTATTGACGAACCAAGCGACGTGAGACACACTAGCTCATTGTCTCATGTTAGTGATGGCGATCACAGTCAGGGGTTCGATCGATGAG (double strand) [qsdR-qsdA intergenic DNA fragment]
binding [1]: binds

CCC1CCC(=O)O1 (stereo not drawn) [GCL, γ-caprolactone]
EMSA with biotinylated qsdR-qsdA intergenic DNA, release of DNA (QsdR; GCL in methanol-water 20:80): The addition of increasing amounts of GCL led to a proportional increase in the amount

N[C@H]1CCOC1=O [HSL, homoserine lactone]
EMSA with biotinylated qsdR-qsdA intergenic DNA, release of DNA (QsdR; HSL in 10 mM Tris pH 7, positive control): inhibition of the DNA-binding activity of QsdR was also observed in the presence of HSL
